# Measurements from patent US7781430B2, “Benzoxazole carboxamides for treating CINV and IBS-D” (Albany Molecular Research, Inc., priority 2005, dated 2010).
# Molecular target: T1, 5-HT3 receptors (Mus musculus, UniProt P23979)
# T1 construct: a group of 5 male or female CD-1 (Crl.) mice; from tissue
# T1 sequence (P23979 24-489): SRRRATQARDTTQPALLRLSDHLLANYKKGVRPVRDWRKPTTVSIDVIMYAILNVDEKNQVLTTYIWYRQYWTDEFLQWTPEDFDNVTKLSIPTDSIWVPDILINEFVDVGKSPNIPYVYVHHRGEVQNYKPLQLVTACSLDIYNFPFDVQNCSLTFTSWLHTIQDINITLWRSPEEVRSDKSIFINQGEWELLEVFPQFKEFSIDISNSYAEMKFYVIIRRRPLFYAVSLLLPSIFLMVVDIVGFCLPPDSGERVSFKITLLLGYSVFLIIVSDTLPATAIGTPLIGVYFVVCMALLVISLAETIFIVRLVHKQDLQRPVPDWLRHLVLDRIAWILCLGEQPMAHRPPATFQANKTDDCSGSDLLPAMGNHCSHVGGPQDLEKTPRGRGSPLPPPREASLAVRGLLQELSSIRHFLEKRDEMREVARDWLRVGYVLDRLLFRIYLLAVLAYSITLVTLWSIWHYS
# Assay: Bezold-Jarisch assay in vivo (inhibition of serotonin induced bradycardia)
# Details: 30 mg/kg orally, CD-1 mice; 5-HT (0.5 mg/kg IV)-induced bradycardia recorded sixty minutes later, pentobarbital-anesthetized
# Experimental: Bezold-Jarisch Assay in vivo. […] Arch. Int. Pharmacodyn. 277: 235-252, 1985]. Test substances and vehicle [2% Tween 80] were each administered orally (30 mg/kg) to a group of 5 male or female CD-1 (Crl.) mice each weighing 24±2 g. A dosing volume of 10 mL/kg was used. Sixty minutes later, 5-HT (0.5 mg/kg IV)-induced bradycardia was recorded in pentobarbital (80 mg/kg IP, given 10 minutes before 5-HT)-anesthetized animals.
row,Structure (SMILES),% Inhibition in vivo [%]
1,O=C(NC1CN2CCC1CC2)c1cccc2oc(-c3ccsc3)nc12 (stereo not shown),62
2,COc1ccccc1-c1nc2c(C(=O)NC3CN4CCC3CC4)cccc2o1 (stereo not shown),88
3,CN1C2CCCC1CC(NC(=O)c1cc(Cl)cc3oc(-c4ccccc4)nc13)C2 (stereo not shown),40

# Tested on: not given
# Assay: not given
# Details: not given
row,Structure (SMILES),melting point [°C]
1,CN1C2CCC1CC(NC(=O)c1cccc3nc(-c4ccccc4)oc13)C2 (stereo not shown),164 to 166
2,CN1C2CCCC1CC(NC(=O)c1cccc3oc(-c4ccccc4)nc13)C2 (stereo not shown),182 to 185
3,CN1C2CCCC1CC(NC(=O)c1cccc3oc(-c4ccc(F)cc4)nc13)C2 (stereo not shown),197 to 199
4,COc1ccc(-c2nc3c(C(=O)NC4CC5CCCC(C4)N5C)cccc3o2)cc1 (stereo not shown),103 to 105
5,O=C(NC1CCNCC1)c1cccc2nc(-c3ccccc3)oc12,191 to 193
6,Cc1nccn1CCNC(=O)c1cccc2oc(-c3ccccc3)nc12,125 to 127
7,COc1ccc(-c2nc3cccc(C(=O)NC4CC5CCCC(C4)N5C)c3o2)cc1 (stereo not shown),160 to 162
8,CN1CCC(NC(=O)c2cc(Cl)cc3oc(-c4ccccc4)nc23)CC1,170 to 172
9,O=C(NC1CN2CCC1CC2)c1cccc2oc(-c3ccc(Cl)cc3)nc12 (stereo not shown),194 to 196
10,Cc1nccn1CCCNC(=O)c1cccc2oc(-c3ccccc3)nc12,145 to 148
11,O=C(NC1CCNCC1)c1cccc2oc(-c3ccccc3)nc12,99 to 102
12,CN1CCC(NC(=O)c2cccc3nc(-c4ccccc4)oc23)CC1,209 to 210
13,COc1ccc(-c2nc3cccc(C(=O)NC4CN5CCC4CC5)c3o2)cc1 (stereo not shown),166 to 167
14,COc1ccc(-c2nc3c(C(=O)NC4CN5CCC4CC5)cccc3o2)cc1 (stereo not shown),108 to 109
15,O=C(NC1CN2CCC1CC2)c1cc(Cl)cc2oc(-c3ccccc3)nc12 (stereo not shown),180 to 183
16,CN1C2CCCC1CC(NC(=O)c1cccc3nc(-c4ccc(F)cc4)oc13)C2 (stereo not shown),229 to 231
17,O=C(NC1CN2CCC1CC2)c1cccc2nc(-c3ccc(F)cc3)oc12 (stereo not shown),185 to 187
18,O=C(NC1CN2CCC1CC2)c1cccc2oc(-c3ccc(F)cc3)nc12 (stereo not shown),208 to 209
19,CN1CCC(NC(=O)c2cccc3oc(-c4ccccc4)nc23)CC1,126 to 128
20,O=C(NC1CN2CCC1CC2)c1cc(Cl)cc2nc(-c3ccccc3)oc12 (stereo not shown),283 to 285
21,O=C(NC1CN2CCC1CC2)c1cccc2nc(-c3ccc(Cl)cc3)oc12 (stereo not shown),181 to 183
22,O=C(NC1CCNCC1)c1cc(Cl)cc2oc(-c3ccccc3)nc12,169 to 171
23,CN1C2CCC1CC(NC(=O)c1cccc3oc(-c4ccccc4)nc13)C2 (stereo not shown),149 to 151
24,O=C(NC1CN2CCC1CC2)c1cccc2nc(-c3ccccc3)oc12 (stereo not shown),179 to 180
25,O=C(NC1CN2CCC1CC2)c1cccc2oc(-c3ccccc3)nc12 (stereo not shown),77 to 80
26,CN1C2CCCC1CC(NC(=O)c1cccc3nc(-c4ccc(Cl)cc4)oc13)C2 (stereo not shown),193 to 196
27,CN1C2CCCC1CC(NC(=O)c1cccc3oc(-c4ccc(Cl)cc4)nc13)C2 (stereo not shown),185 to 187
28,CN1C2CCCC1CC(NC(=O)c1cc(Cl)cc3nc(-c4ccccc4)oc13)C2 (stereo not shown),199 to 201
